Assay results published in US20100125073A1, “BENZOFURAN AND BENZOTHIOPHENE DERIVATIVES USEFUL IN THE TREATMENT OF CANCERS OF THE CENTRAL NERVOUS SYSTEM” (priority 2006, published 2010).
One block for each compound: values may come before it.

Tests used:
[1] = Solubility in aqueous 5% dextrose; type: physicochemical; settings: for solubility thermodynamic at 24 h: saline or isotonic, thermodynamic from solid, 5% Dextrose
Description: The test compound is dissolved in an aqueous solution of 5% dextrose adjusted to the respective pH with 1n HCl. After shaking at room temperature for 24 h the probe is subjected to an ultra centrifugation process at 224000 g for 30 min. DMSO is added to the supernatant and the content of test compound is determined and quantified by HPLC employing a two point calibration curve of the test compound in DMSO.
HPLC Method: Agilent 1100 with DAD (G1315A), quat. Pump (G1311A), Autosampler CTC HTS PAL, Degaser (G1322A) and column thermostate (G1316A); Column: Zorbax Extend-C18 3.5μ; temperature: 40° C.; Eluent A: Water+5 ml Perchloric acid/1; Eluent B: Acetonitrile; flow rate: 0.7 mL/min; Gradient: 0-0.5 min 98% A, 2% B; Rampe: 0.5-4.5 min 10%, A 90% B; 4.5-6 min 10% A, 90% B; Rampe: 6.5-6.7 min 98% A, 2% B; 6.7-7.5 min 98% A, 2% B.

[2] = Stability in human plasma; type: in vitro ADME; settings: within 1 hour
[3] = Stability in buffer at different pH-values; type: physicochemical
Description: To determine the stability of test compounds at different pH-values 0.3 mg of the dry compound is dissolved in 0.5 ml of acetonitrile and the sample is sonified for 10 seconds. Then buffer solutions are added and the samples are sonified again.
pH 2: 0.03 M citric acid/0.0082 M hydrochloric acid/0.061 M sodium chloride pH 3: 0.04 M citric acid/0.021 M sodium hydroxide/0.06 M sodium chloride pH 4: 0.056 M citric acid/0.068 M sodium hydroxide/0.044 M Sodium chloride pH 5: 0.096 M citric acid/0.2 M sodium hydroxide pH 7: 0.029 M sodium hydroxide solution/0.05 M potassium dihydrogen phosphate pH 10: 0.013 M sodium tetraborate/0.018 M sodium hydroxide
The test compound concentrations in solution is analyzed by HPLC every hour during 24 hours at 37° C.
Agilent 1100 with DAD (G1314A), binary pump (G1312A), autosampler (G1329A), column thermostat (G1316A), thermostat (G1330A), Column: Kromasil 100 C18/60×2.1 mm/3.5 μm, Column temperature: 37° C., Eluent A: Water+5 ml perchloric acid/1, Eluent B: Acetonitrile, Gradient: 0-1.0 min 98% A, 2% B; 1.0-9.0 min 2% A, 98% B; 9.0-13.0 min 2% A, 98% B; 13.0-13.5 min 98% A, 2% B; 13.5-15.0 98% A, 2% B, Flow rate: 0.75 ml/min, Detection: 210 nm

Stability in rat plasma = type: in vitro ADME; settings: within 1 hour
[4] = test system: SK-N-DZ (human neuroblastoma) cells; assay: Proliferation assay (CellTiter-Glo), SK-N-DZ; type: cell-based; settings: 72 after compound addition, n = 4
Description: (§1) SK-N-DZ (human neuroblastoma; ATCC# CRL-2149) or U118 MG (human glioblastoma/astrocytoma; ATCC# HTB-15) or U87 MG (human glioma; ATCC# HTB-14) or H4 (human neuroglioma; ATCC# HTB 178) cells are cultivated under standard conditions (RPMI 1640/Glutamax 2 mM/glucose 2 g/l/SoBicarbonate 2 g/1/10% FCS; 37° C. in 5% CO2 in a humid incubator). Cells are suspended using Accutase (PAA) and seeded at 1000 cells/Well in 100 μL medium/well in a 96-well plate (Greiner Kat. Nr. 655073). The test compound is added 24 Stunden after seeding. Commercial assays (CellTiter-Glo® Luminescent Cell Viability Assay; Promega Kat. Nr. G7571) are used 72 later according to the manufacturers instructions. IC50 is calculated using GraphPad Prism.
(§2) Compounds are solved in 100% DMSO and diluted 1:20 in medium before used diluted 1:10 in the test.

[5] = Crossing blood brain barrier in mice; type: in vivo, Male Ncr nude mice; settings: 200 mg/kg orally for 14 days
Description: Male Ncr nude mice (n=3/time point) is treated for 14 days orally with a therapeutically relevant dose of example 153 (200 mg/kg) or a vehicle control (time: Oh). Daily treatment with a high dose like this is necessary to effectively treat subcutaneously transplanted tumors in these mice. After treatment, mice are sacrified at indicated time points, blood and brain tissue is removed and analysed. The method is as described above in example 2 under “Stability in rat and human plasma”. […] Mean brain concentrations are indicated as absolute concentration and relative to plasma concentration at similar time points (from the same experiment) in the table below.

[6] = test system: H4 (human neuroglioma) cells; assay: Proliferation assay (CellTiter-Glo), H4; type: cell-based; settings: n = 1
Description: as §1, §2

[7] = test system: U87 MG (human glioma) cells; assay: Proliferation assay (CellTiter-Glo), U87 MG; type: cell-based; settings: U-87 MG, n = 2
Description: as §1, §2

[8] = test system: U118 MG (human glioblastoma/astrocytoma) cells; assay: Proliferation assay (CellTiter-Glo), U118 MG; type: cell-based; settings: U-118-MG, n = 4
Description: as §1, §2

solubility at 24 h ([1]; aqueous 5% dextrose solution, parent compound, pH not stated): < 0.1 µg/mL
SMILES: CS(=O)(=O)NCc1cccc(-c2ccc3c(N)c(C(=O)c4ccc(Cl)cc4Cl)oc3c2)c1 [N-{3-[3-amino-2-(2,4-dichlorobenzoyl)-1-benzofuran-6-yl]benzyl}methanesulfonamide]

degradation during solubility determination ([1]; 5% dextrose, 24 h room temperature): no degradation has been observed
solubility thermodynamic at 24 h ([1]; aqueous 5% dextrose solution, pH 3, 24 h room temperature): 360 µg/mL
solubility thermodynamic at 24 h ([1]; aqueous 5% dextrose solution, pH 4, 24 h room temperature): 350 µg/mL
cleaved in plasma [2]: more than 90%
Amount of remaining compound ([3]; buffer pH 2, after 24 h at 37° C.): 100%
Amount of remaining compound ([3]; buffer pH 3, after 24 h at 37° C.): 100%
Amount of remaining compound ([3]; buffer pH 4, after 24 h at 37° C.): 94%
Amount of remaining compound ([3]; buffer pH 5, after 24 h at 37° C.): 58%
Amount of remaining compound ([3]; buffer pH 7, after 24 h at 37° C.): 4%
Amount of remaining compound ([3]; buffer pH 10, after 24 h at 37° C.): 2%
cleaved in plasma (Stability in rat plasma): more than 90%
SMILES: CC(C)[C@H](N)C(=O)N(Cc1cccc(-c2ccc3c(N)c(C(=O)c4ccc(Cl)cc4Cl)oc3c2)c1)S(C)(=O)=O.Cl [Example 366, N-{3-[3-amino-2-(2,4-dichlorobenzoyl)-1-benzofuran-6-yl]benzyl}-N-(methylsulfonyl)-L-valinamide, hydrochloride]

IC50 [4]: 110 nM
crossing of the blood brain barrier [5]: crosses the blood brain barrier
brain concentration % of Plasma concentration ([5]; 0.167 h): 9-19%
brain concentration % of Plasma concentration ([5]; 0.5 h): 17-18%
brain concentration % of Plasma concentration ([5]; 1.5 h): 12-90%
concentration at 0.167 h ([5]; male, Ncr nude, mouse, brain, po, 0.167 h): 600 ng/mL
concentration at 0.5 h ([5]; male, Ncr nude, mouse, brain, po, 0.5 h): 1400 ng/mL
concentration at 1.5 h ([5]; male, Ncr nude, mouse, brain, po, 1.5 h): 1000 ng/mL
IC50 [6]: 170 nM
IC50 [7]: 320 nM
IC50 [8]: 120 nM
SMILES: CS(=O)(=O)NCc1cccc(-c2ccc3c(N)c(C(=O)c4ccc(Cl)cc4Cl)oc3c2)c1 [Example 153, N-{3-[3-amino-2-(2,4-dichlorobenzoyl)-1-benzofuran-6-yl]benzyl}methanesulfonamide]
